Laboratory results published in patent US20040161781A1, “Compositions and methods for identifying thymidylate synthase modulators” (priority 2002, published 2004).
Like-named read-outs stand apart in the source and are kept apart here.

Legend:
[1] = system: thymidylate synthase (TS); test: Evaluation of TS expression by Western blotting in H630-C6 cells; format: cell-based, human; details: H630-C6 cells, 18 hr treatment
Experimental: FIGS. 4a and 4b. Evaluation of TS expression by Western blotting. […] The cells were harvested for Western blots.
This example describes the relationship between TS levels and luciferase production by various known TS inhibitors. Western blotting was performed as previously described (Dolnick and Black, 1996). Briefly, H630-C6 cells were washed with PBS and extracted with RIPA buffer. 10 μg of total protein was resolved by electrophoresis in a 10% SDS-PAGE and was blotted onto a PVDF membrane (Immobilon-P, Millipore, Bedford, Mass.). The membrane was hybridized with rabbit polyclonal antibody against TS (a gift from Dr. Edward Chu, VA Cancer Center, Yale University, West Haven, Conn.) diluted in SuperBlock Blocking Buffer (Pierce, Rockford, Ill.) plus 0.25% Tween 20 for one hour and hybridized with HRP-linked anti-rabbit secondary antibody (Jackson Laboratories) for an additional one hour. The membrane was detected with SuperSignal West Dura Extended Duration Substrate (Pierce, Rockford, Ill.) and was visualized by exposing the blot to Kodak XAR-5 film. […] The resulting signal was detected as described above.
The induction of luciferase activity depends upon the ability to reduce the amount of endogenous TS bound to the TBEs in the recombinant luciferase transcripts. Dissociation of TS from the luciferase reporter mRNA is expected to be accompanied by the removal of TS from TBEs located in other mRNAs as well, such as endogenous TS mRNA. Therefore, an increase in TS is expected to accompany the increase in luciferase. To verify whether a translational mechanism is involved we evaluated the levels of TS from cells treated with the compounds described above by Western blotting.

[2] = system: thymidylate synthase (TS); test: Luciferase assay in H630 cells transiently transfected with pG3E1-2TBE; format: cell-based, human; details: 5-FU 10 μM for 24 hr; H630 cells transfected with pG3E1-2TBE
Experimental: FIGS. 2a-2c. Activity of the EGR-I promoter and TBEs in pGL3-basic plasmid. FIG. 2a—the EGR-I promoter was added upstream of the luciferase reporter gene of pGL3-basic plasmid as described in Example 1. The resultant construct pG3E1 was transfected into H630 cells and the luciferase assay was performed 24 hr later. Control: mock transfection; pG3E1: 5 μg of pG3E1 plasmid DNA per 2×10^6 cells was used for transfection. RLU: relative light units. In FIGS. 2b and 2c, TS-binding elements were synthesized and added into pG3E1. The pG3E1-2TBE (5 μg) was transfected into six replicate aliquots of H630 cells (2×10^6) and plated separately. After 24 hr, three of transfected samples were treated with 5-FU (10 μM) for an additional 24 hr (FIG. 2c), the cells were then processed for the luciferase assay according to the manufacturer's instructions. Control: mock transfection; pG3E1: transfected with pG3E1; pG3E1+T: transfected with pG3E1-2TBE only (FIG. 2b). P+T+FU: transfected with pG3E1-2TBE and 24 hr following transfection treated with 5-FU (FIG. 2c). Data are the average of triplicate experiments±S.D.
This example describes the transient transfection of cells with the construct of the present invention. […]

[3] = system: thymidylate synthase (TS); test: Luciferase assay in stably transfected H630-C6 cells (pG3E1-2TBE-Neo); format: cell-based, human
Experimental: FIGS. 3a-3j. RLU production in H630-C6 cells in response to TS inhibitors. H630-C6 cells were evaluated for luciferase activity in response to treatment with the indicated compounds. The cells were exposed to the compounds at the indicated concentrations for 18 hr and luciferase assays were then performed according to the manufacturer's instructions. The mean values of triplicates or quadruplicates are shown along with the standard derivations.
This example describes the stable transfection of cells with the DNA construct of the present invention. To facilitate selection of stable transformants, we added a neomycin-resistance gene to the pG3E1-2TBE (FIG. 1) to generate a new plasmid termed pG3E1-2TBE-Neo as follows. For stable transfection, pG3E1-2TBE-Neo was linearized at the ampicillin resistance gene with Ase I and was introduced into H630 cells as described above. At 24 hrs post-transfection, the cells were exposed to 400 μg/ml of G418 for two weeks. Individual clones were picked at that time and screened for their ability to induce luciferase in response to treatment with 5-FU, a known TS inhibitor. Following selection with G418 and evaluation for changes in luciferase activity after exposure of the cells to 5-FU, the cloned subline H630/pG3E1-2TBE-Neo-L1-2-C6 (H630-C6) was chosen for further study.
The stably transfected H630-C6 cell line was maintained in RPMI 1640 plus 10% dialyzed FBS and 400 μg/ml of geneticin (G418). For luciferase assays, 2×10^4 cells were seeded in each well of a 24-well plate in RPMI 1640 medium plus 10% FBS without G418 and were allowed to attach at least six hr, followed by drug exposure overnight (approximately 18 hr). The cells were then washed with PBS (137 mM NaCl, 2.7 mM KCl, 4.3 mM Na2HPO4, 1.4 mM KH2PO4, pH 7.4), lysed with Passive Lysis Buffer (Promega, Madison) and assayed for luciferase activity using the Luciferase Assay System (Promega, Madison, Wis.) according to the manufacturer's instructions. Relative light units (RLU) were measured with a Lumat LB 9501 luminometer (EG & G Berthold, Wildbad, Germany).
To test H630-C6 as a tool to identify TS modulators three different classes of compounds, i.e., specific or predominantly specific TS inhibitors, agents that inhibit folate pathways or inhibit TS as well as having other targets, and agents that act through TS unrelated sites of action were evaluated for their ability to induce changes in luciferase activity.

[4] = system: thymidylate synthase (TS); test: Multiwell luciferase assay in RKO colon tumor cell lines containing pG3E1-2TBE-Neo; details: for % C (effect relative to control without 5-FU), RKO clone 1 / % C (effect relative to control without 5-FU), RKO clone 4 / % C (effect relative to control without 5-FU), RKO clone 7 / RLU RKO clone 1 / RLU RKO clone 4 / RLU RKO clone 7: approximately 18 hr
[5] = system: thymidylate synthase (TS); test: Down-regulation of TS in H630 cells treated with acyl-homoserine lactones (Western blotting); format: cell-based, human; details: overnight (approximately 16 hours)
Text: FIG. 6. A representation of the ability of acyl homoserine lactones to down-regulate TS in H630 cells.
The signaling molecules produced by the rTS signaling pathway cause a decrease in the amount of TS found in cells. These signaling molecules can simulate the effects of the compound 3-oxo-hexanoyl homoserine lactone in activating the receptor for this compound when it is present in a recombinant bacteria. […] This hypothesis was validated by the results of an experiment portrayed in FIG. 6. Accordingly, the down-regulation of TS in H630 (human colon cancer) cells treated with acyl-homoserine lactones was tested. Cells growing in RPMI 1640 culture medium, supplemented with 10% dialyzed fetal bovine serum at 37° C. in an atmosphere of 95:5 air:CO2. The compounds with the structures shown were added to the cells and allowed to incubate overnight (approximately 16 hours). The cells were extracted and TS measured by Western blotting as described. The compounds from top to bottom are: (1) 3-hydroxy butanoyl homoserine lactone, (2) butanoyl homoserine lactone; (3) 3-oxo-hexanoyl homoserine lactone; (4) d, 1-hexanoyl homoserine lactone, and (5) 1-homoserine lactone. Tubulin is shown as a loading standard.

SMILES: O=c1[nH]cc(F)c(=O)[nH]1 [5-FU, 5-Fluorouracil]
- mobility of TS in SDS-PAGE / Western blot [1]: altered the mobility of TS
- increase in the RLU compared with untreated transfectants [2]: 33±13.8%
- concentration at which the increase in RLU output plateaued ([3]; H630-C6 cells, 18 hr exposure): 50 µM
- lowest concentration at which changes in RLU can be detected ([4]; RKO clones, Table 1): 0.1 µM
- % C (effect relative to control without 5-FU), RKO clone 1 ([4]; [5-FU] 0.1 μM): 117%
- % C (effect relative to control without 5-FU), RKO clone 4 ([4]; [5-FU] 0.1 μM): 121%
- % C (effect relative to control without 5-FU), RKO clone 7 ([4]; [5-FU] 0.1 μM): 120%
- RLU RKO clone 1 ([4]; [5-FU] 0.1 μM): 1137 RLU
- RLU RKO clone 4 ([4]; [5-FU] 0.1 μM): 1078 RLU
- RLU RKO clone 7 ([4]; [5-FU] 0.1 μM): 799 RLU
- % C (effect relative to control without 5-FU), RKO clone 1 ([4]; [5-FU] 0.5 μM): 135%
- % C (effect relative to control without 5-FU), RKO clone 4 ([4]; [5-FU] 0.5 μM): 112%
- % C (effect relative to control without 5-FU), RKO clone 7 ([4]; [5-FU] 0.5 μM): 157%
- RLU RKO clone 1 ([4]; [5-FU] 0.5 μM): 1314 RLU
- RLU RKO clone 4 ([4]; [5-FU] 0.5 μM): 999 RLU
- RLU RKO clone 7 ([4]; [5-FU] 0.5 μM): 1043 RLU
- % C (effect relative to control without 5-FU), RKO clone 1 ([4]; [5-FU] 2.0 μM): 140%
- % C (effect relative to control without 5-FU), RKO clone 4 ([4]; [5-FU] 2.0 μM): 137%
- % C (effect relative to control without 5-FU), RKO clone 7 ([4]; [5-FU] 2.0 μM): 168%
- RLU RKO clone 1 ([4]; [5-FU] 2.0 μM): 1356 RLU
- RLU RKO clone 4 ([4]; [5-FU] 2.0 μM): 1214 RLU
- RLU RKO clone 7 ([4]; [5-FU] 2.0 μM): 1119 RLU
- % C (effect relative to control without 5-FU), RKO clone 1 ([4]; [5-FU] 10 μM): 179%
- % C (effect relative to control without 5-FU), RKO clone 4 ([4]; [5-FU] 10 μM): 172%
- % C (effect relative to control without 5-FU), RKO clone 7 ([4]; [5-FU] 10 μM): 243%
- RLU RKO clone 1 ([4]; [5-FU] 10 μM): 1738 RLU
- RLU RKO clone 4 ([4]; [5-FU] 10 μM): 1527 RLU
- RLU RKO clone 7 ([4]; [5-FU] 10 μM): 1614 RLU
- % C (effect relative to control without 5-FU), RKO clone 1 ([4]; [5-FU] 50 μM): 148%
- % C (effect relative to control without 5-FU), RKO clone 4 ([4]; [5-FU] 50 μM): 175%
- % C (effect relative to control without 5-FU), RKO clone 7 ([4]; [5-FU] 50 μM): 156%
- RLU RKO clone 1 ([4]; [5-FU] 50 μM): 1438 RLU
- RLU RKO clone 4 ([4]; [5-FU] 50 μM): 1559 RLU
- RLU RKO clone 7 ([4]; [5-FU] 50 μM): 1560 RLU

SMILES: CN(Cc1cnc2nc(N)nc(N)c2n1)c1ccc(C(=O)N[C@@H](CCC(=O)O)C(=O)O)cc1 [MTX, methotrexate]
- TS protein level by Western blotting [1]: elevated TS protein levels
- change in luciferase activity (RLU), in words [3]: increases in luciferase that were comparable
- elevation of luciferase activity [3]: approximately two-fold

SMILES: Cc1nc2ccc(CN(C)c3ccc(C(=O)N[C@@H](CCC(=O)O)C(=O)O)s3)cc2c(=O)[nH]1 [ZD1694, Raltitrexed]
- elevation of luciferase activity ([3]; 100 μM, H630-C6 cells, 18 hr): approximately two-fold
- change in luciferase activity (RLU), in words ([3]; H630-C6 cells, 18 hr exposure): increases in luciferase that were comparable

SMILES: Nc1nc2c([nH]c(=S)n2[C@@H]2O[C@H](CO)[C@@H](O)[C@H]2O)c(=O)[nH]1 [TG, 8-thioguanosine]
- TS protein level by Western blotting [1]: did not alter TS protein levels
- change in luciferase activity (RLU), in words ([3]; H630-C6 cells, 18 hr exposure): no increase

SMILES: O=c1[nH]c(=O)n([C@H]2C[C@H](O)[C@@H](CO)O2)cc1C(F)(F)F [TFT, trifluorothymidine]
- concentration at which the increase in RLU output plateaued ([3]; H630-C6 cells, 18 hr exposure): 0.1 µM

SMILES: CN[C@@H]1[C@@H](O)[C@@H](O[C@@H]2[C@@H](O)[C@H](O[C@H]3O[C@H]([C@@H](C)O)[C@@H](O)[C@H](O)[C@H]3N)[C@@H](N)C[C@H]2N)OC[C@]1(C)O [G418, geneticin]
- TS protein level by Western blotting [1]: inactive

SMILES: O=c1[nH]c(=O)n([C@@H]2O[C@H](CO)[C@@H](O)[C@H]2O)cc1F [FUrd, 5-fluorouridine]
- mobility of TS in SDS-PAGE / Western blot [1]: altered the mobility of TS
- concentration at which the increase in RLU output plateaued ([3]; H630-C6 cells, 18 hr exposure): 2.5 µM

SMILES: Nc1ncn([C@@H]2O[C@H](CO)[C@@H](O)[C@H]2O)c(=O)n1 [AC, 5-azacytidine]
- TS protein level by Western blotting [1]: did not alter TS protein levels
- change in luciferase activity (RLU), in words ([3]; H630-C6 cells, 18 hr exposure): no increase

SMILES: CCCCCC(=O)NC1CCOC1=O (single isomer, unassigned) [d-enantiomer]
- activity of the enantiomers, concluded from the comparison with the racemic mixture [5]: inactive

SMILES: CCCCCC(=O)N[C@H]1CCOC1=O [1-hexanoyl compound]
- activity in down-regulating TS relative to the racemic mixture (d, 1) [5]: twice as active
- activity of the enantiomers, concluded from the comparison with the racemic mixture [5]: active

SMILES: O=c1[nH]c(=O)n([C@H]2C[C@H](O)[C@@H](CO)O2)cc1F [FUdR, 5-fluoro-2′-deoxyuridine]
- mobility of TS in SDS-PAGE / Western blot [1]: altered the mobility of TS
- concentration at which the increase in RLU output plateaued ([3]; H630-C6 cells, 18 hr exposure): 0.005 µM
